In patent publication US6737383B1, “Herbicidal oxadiazolidines” (priority 1999, dated 2004):

What was measured:
blackgrass = assay: Test E blackgrass; type: in vivo, Alopecurus myosuroides; conditions: Preemergence
sugar beet = assay: Test B pre/postemergence sugar beet; type: in vivo, Beta vulgaris
Summary of the method: (§1)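 Response is a visual 0-to-10 score relative to untreated plants, where 0 means no effect and 10 means complete control, taken twelve to sixteen days after application. Treatments went onto soil at planting and onto foliage of 1- to 4-leaf plants, using a surfactant-containing non-phytotoxic solvent.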

tall mallow = assay: Test D tall mallow; type: in vivo, Malva sylvestris; conditions: Preemergence, 0 to 100 scale
Summary of the method: (§2)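 Greenhouse pots, sandy loam, single species per pot. Preemergence tests: soil-surface application ≤1 day after planting. Compound formulated in non-phytotoxic solvent with surfactant. Visual rating 14–21 DAT, scale 0–100.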

cocklebur = assay: Test B pre/postemergence cocklebur; type: in vivo, Xanthium strumarium
Summary of the method: as §1

wild oat = assay: Test E wild oat; type: in vivo, Avena fatua; conditions: Preemergence
winter wheat [1] = assay: Test E winter wheat; type: in vivo, Triticum aestivum; conditions: Preemergence
winter wheat [2] = assay: Test E winter wheat; type: in vivo, Triticum aestivum; conditions: Postemergence
Summary of the method: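 Greenhouse-grown plants are treated (postemergence: 1- to 4-leaf stage, sandy loam/potting mix 60:40), then evaluated visually versus untreated controls some 21 to 28 days later.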

guineagrass = assay: Test D guineagrass; type: in vivo, Panicum maximum; conditions: Preemergence, 0 to 100 scale
Summary of the method: as §2

green foxtail = assay: Test E green foxtail; type: in vivo, Setaria viridis; conditions: Preemergence
Italian ryegrass = assay: Test E Italian ryegrass; type: in vivo, Lolium multiflorum; conditions: Preemergence
bamyardgrass = assay: Test B flood test barnyardgrass; type: in vivo, Echinochloa crus-galli
Summary of the method: (§3)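 Plants were grown to the 2-leaf stage before treatment with test chemical, then held in a greenhouse for twelve to sixteen days. Injury was visually rated against untreated controls on a 0–10 scale, where 0 is no effect and 10 is complete control.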

winter barley = assay: Test E winter barley; type: in vivo, Hordeum vulgare; conditions: Preemergence
smallflower flatsedge = assay: Test B flood test smallflower flatsedge; type: in vivo, Cyperus difformis
Summary of the method: as §3

[3] = Rate 62 g/ha, 0 to 100 scale, 0 no effect, 100 complete control
[4] = Rate 125 g/ha, 0 to 100 scale (0 no effect, 100 complete control)
[5] = Postemergence, Rate 125 g/ha, scale of 0 to 10 where 0 is no effect and 10 is complete control
[6] = Preemergence, Rate 62 g/ha, scale 0 to 10 (0 no effect, 10 complete control)
[7] = Preemergence, Rate 250 g/ha, scale 0 to 10, 0 is no effect, 10 is complete control
[8] = Preemergence, Rate 500 g/ha, scale 0 to 10 (0 no effect, 10 complete control)
[9] = Rate 62 g/ha, Postemergence, scale of 0 to 10 where 0 is no effect and 10 is complete control
[10] = Rate 250 g/ha, Postemergence, scale 0 to 10, 0 is no effect, 10 is complete control
[11] = Rate 500 g/ha, Postemergence, scale 0 to 10
[12] = Rate 64 g/ha, 0 no injury, 100 complete control
[13] = Rate 125 g/ha, 0 no injury, 100 complete control
[14] = Postemergence (flood test species), Rate 125 g/ha, scale of 0 to 10 where 0 is no effect and 10 is complete control
[15] = Rate 62 g/ha, Postemergence section, flood test species, scale of 0 to 10 where 0 is no effect and 10 is complete control
[16] = Rate 250 g/ha, Postemergence (flood test), scale 0 to 10, 0 is no effect, 10 is complete control
[17] = Rate 1000 g/ha, 0 to 100 scale where 0 is no effect and 100 is complete control
[18] = Postemergence, Rate 62 g/ha, scale 0 to 10, 0 is no effect, 10 is complete control
[19] = Postemergence, Rate 250 g/ha, scale 0 to 10, 0 no effect, 10 complete control
[20] = Preemergence, Rate 31 g/ha, visual rating, scale 0 to 10 (0 no effect, 10 complete control)
[21] = Preemergence, Rate 62 g/ha, scale 0 to 10, 0 is no effect, 10 is complete control
[22] = Preemergence, Rate 125 g/ha, scale 0 to 10 (0 no effect, 10 complete control)
[23] = Rate 125 g/ha, Postemergence, scale 0 to 10, 0 no effect, 10 complete control
[24] = Rate 16 g/ha, 0 no injury, 100 complete control
[25] = Rate 32 g/ha, 0 no injury, 100 complete control
[26] = Rate 500 g/ha, 0 to 100 scale where 0 is no effect and 100 is complete control
[27] = Rate 125 g/ha, Postemergence section (flood test species), scale 0 to 10, 0 no effect, 10 complete control
[28] = Rate 250 g/ha, headed Pre-emergence (flood test species), scale 0 to 10 (0 no effect, 10 complete control)
[29] = Rate 500 g/ha, headed Pre-emergence (flood test species), scale 0 to 10 (0 no effect, 10 complete control)
[30] = flood test, listed under Postemergence, Rate 250 g/ha, scale 0 to 10, 0 no effect, 10 complete control

CC(C)N(C(=O)n1oc(=O)n(C)c1=O)c1ccc(F)cc1 [Compound 138]
80: Wheat (winter) plant response rating (0 to 100 scale) (winter wheat [1]; Rate 250 g/ha) | Wheat (winter) plant response rating (winter wheat [2]; Rate 250 g/ha, 0 to 100 scale where 0 is no effect and 100 is complete control) | I. Ryegrass plant response rating (0 to 100 scale) (Italian ryegrass; Rate 250 g/ha)
50: Plant response rating, Blackgrass (blackgrass; [3]) | Plant response rating, Wild oat (wild oat; [3])
9: Sugarbeets plant response rating (sugar beet; [6])
6: Plant response rating, Sugarbeets (sugar beet; [10])
70: Blackgrass plant response rating (0 to 100 scale) (blackgrass; Rate 250 g/ha) | Plant response rating, Tall Mallow (tall mallow; Rate 250 g/ha) | Plant response rating, Wheat (winter) (winter wheat [1]; [4]) | Plant response rating, Wheat (winter) (winter wheat [2]; Rate 125 g/ha, 0 to 100 scale) | Plant response rating, Green foxtail (green foxtail; [4]) | Plant response rating, I. Ryegrass (Italian ryegrass; [4])
2: Plant response rating, Cocklebur (cocklebur; [10])
40: Tall Mallow plant response rating (tall mallow; [12]) | Tall Mallow plant response rating (tall mallow; [13])
0: Sugarbeets plant response rating (sugar beet; [5]) | Sugarbeets plant response rating (sugar beet; [9]) | Cocklebur plant response rating (cocklebur; [5]) | Cocklebur plant response rating (cocklebur; [6]) | Cocklebur plant response rating (cocklebur; [7]) | Cocklebur plant response rating (cocklebur; [8]) | Cocklebur plant response rating (cocklebur; [9]) | Barnyardgrass plant response rating (bamyardgrass; [14]) | Barnyardgrass plant response rating (bamyardgrass; Rate 31 g/ha, Postemergence section (flood test species), scale 0 to 10) | Barnyardgrass plant response rating (bamyardgrass; [15]) | S. Flatsedge plant response rating (smallflower flatsedge; [14]) | S. Flatsedge plant response rating (smallflower flatsedge; [15])
75: Green foxtail plant response rating (0 to 100 scale) (green foxtail; Rate 250 g/ha)
60: Plant response rating, Blackgrass (blackgrass; [4]) | Plant response rating, Wild oat (wild oat; [4]) | Plant response rating, Wheat (winter) (winter wheat [1]; [3]) | Plant response rating, Wheat (winter) (winter wheat [2]; Rate 62 g/ha, 0 to 100 scale) | Plant response rating, Green foxtail (green foxtail; [3]) | Plant response rating, I. Ryegrass (Italian ryegrass; [3]) | Plant response rating, Barley (winter) (winter barley; [4])
30: Plant response rating, Barley (winter) (winter barley; [3])
8: Sugarbeets plant response rating (sugar beet; [11]) | Plant response rating, Barnyardgrass (bamyardgrass; [16])
100: Plant response rating, Tall Mallow (tall mallow; Rate 500 g/ha) | Plant response rating, Guineagrass (guineagrass; [12]) | Plant response rating, Guineagrass (guineagrass; [13]) | Plant response rating, Guineagrass (guineagrass; Rate 250 g/ha) | Plant response rating, Guineagrass (guineagrass; Rate 500 g/ha)
90: Barley (winter) plant response rating (0 to 100 scale) (winter barley; Rate 250 g/ha)
3: Cocklebur plant response rating (cocklebur; [11])
65: Wild oat plant response rating (0 to 100 scale) (wild oat; Rate 250 g/ha)
10: Sugarbeets plant response rating (0 to 10 scale) (sugar beet; Preemergence, Rate 125 g/ha, 0 is no effect, 10 is complete control) | Sugarbeets plant response rating (sugar beet; [7]) | Sugarbeets plant response rating (sugar beet; [8])
7: Plant response rating, S. Flatsedge (smallflower flatsedge; [16])

COc1ccccc1-n1c(=O)on(C(=O)N(c2ccc(F)cc2)C(C)C)c1=O [Compound 30]
75: Plant response rating, Guineagrass (guineagrass; [13])
40: Plant response rating, Guineagrass (guineagrass; [12]) | Plant response rating, I. Ryegrass (Italian ryegrass; [26])
10: Plant response rating, Wild oat (wild oat; [26]) | Plant response rating, Barley (winter) (winter barley; Rate 250 g/ha, 0 to 100 scale) | Plant response rating, Barley (winter) (winter barley; [26]) | Plant response rating, Barley (winter) (winter barley; [17])
98: Plant response rating, Guineagrass (guineagrass; Rate 250 g/ha) | Plant response rating, Guineagrass (guineagrass; Rate 500 g/ha)
30: Plant response rating, Blackgrass (blackgrass; Rate 250 g/ha, 0 to 100 scale) | Plant response rating, Blackgrass (blackgrass; [17]) | Plant response rating, Guineagrass (guineagrass; [24]) | Plant response rating, Guineagrass (guineagrass; [25]) | Plant response rating, Green foxtail (green foxtail; Rate 250 g/ha, 0 to 100 scale)
0: Sugarbeets plant response rating (sugar beet; [18]) | Sugarbeets plant response rating (sugar beet; [19]) | Sugarbeets plant response rating (sugar beet; [20]) | Plant response rating, Sugarbeets (sugar beet; [21]) | Plant response rating, Sugarbeets (sugar beet; [22]) | Plant response rating, Sugarbeets (sugar beet; Preemergence, Rate 250 g/ha, scale of 0 to 10 where 0 is no effect and 10 is complete control) | Sugarbeets plant response rating (sugar beet; [23]) | Plant response rating, Tall Mallow (tall mallow; [24]) | Plant response rating, Tall Mallow (tall mallow; [25]) | Tall Mallow plant response rating (tall mallow; [12]) | Tall Mallow plant response rating (tall mallow; [13]) | Plant response rating, Tall Mallow (tall mallow; Rate 250 g/ha) | Plant response rating, Tall Mallow (tall mallow; Rate 500 g/ha) | Cocklebur plant response rating (cocklebur; [18]) | Cocklebur plant response rating (cocklebur; [19]) | Cocklebur plant response rating (cocklebur; [20]) | Plant response rating, Cocklebur (cocklebur; [21]) | Plant response rating, Cocklebur (cocklebur; [22]) | Cocklebur plant response rating (cocklebur; Rate 31 g/ha, Postemergence, scale 0 to 10) | Cocklebur plant response rating (cocklebur; [23]) | Plant response rating, Wheat (winter) (winter wheat [1]; Rate 250 g/ha, 0 to 100 scale) | Plant response rating, Wheat (winter) (winter wheat [1]; [26]) | Plant response rating, Wheat (winter) (winter wheat [1]; [17]) | Plant response rating, Wheat (winter) (winter wheat [2]; Rate 250 g/ha, 0 to 100 scale (0 no effect, 100 complete control)) | Plant response rating, Wheat (winter) (winter wheat [2]; Rate 1000 g/ha, 0 to 100 scale, 0 is no effect and 100 is complete control) | Plant response rating, Wheat (winter) (winter wheat [2]; Rate 500 g/ha, 0 to 100 scale, 0 no effect, 100 complete control) | Barnyardgrass plant response rating (bamyardgrass; [18]) | Barnyardgrass plant response rating (bamyardgrass; [27]) | Barnyardgrass plant response rating (bamyardgrass; [28]) | Barnyardgrass plant response rating (bamyardgrass; Rate 500 g/ha, Postemergence section of Table B, 0 to 10 scale (0 no effect, 10 complete control)) | Plant response rating, Barnyardgrass (bamyardgrass; [29]) | Barnyardgrass plant response rating (bamyardgrass; Rate 1000 g/ha, Pre-emergence (as headed), scale 0 to 10) | Barnyardgrass plant response rating (bamyardgrass; Rate 2000 g/ha, Pre-emergence (as headed), scale 0 to 10, 0 no effect, 10 complete control) | Barnyardgrass plant response rating (bamyardgrass; [30]) | S. Flatsedge plant response rating (smallflower flatsedge; [18]) | S. Flatsedge plant response rating (smallflower flatsedge; Pre-emergence, Rate 1000 g/ha, scale 0 to 10 (0 no effect, 10 complete control)) | S. Flatsedge plant response rating (smallflower flatsedge; [27]) | S. Flatsedge plant response rating (smallflower flatsedge; [28]) | Plant response rating, S. Flatsedge (smallflower flatsedge; [29]) | S. Flatsedge plant response rating (smallflower flatsedge; Rate 2000 g/ha, Pre-emergence (as headed), scale 0 to 10) | S. Flatsedge plant response rating (smallflower flatsedge; [30])
60: Plant response rating, Green foxtail (green foxtail; [26]) | Plant response rating, Green foxtail (green foxtail; [17])
50: Plant response rating, I. Ryegrass (Italian ryegrass; [17])
20: Plant response rating, Wild oat (wild oat; [17]) | Plant response rating, I. Ryegrass (Italian ryegrass; Rate 250 g/ha, 0 to 100 scale)
